According to patent US20230381176A1, “A PHARMACEUTICAL COMPOSITION AND USE THEREOF FOR TREATMENT OF CANCER” (Ascentage Pharma (Suzhou) Co., Ltd., priority 2020, published 2023):
pIC50: −log10 of the molar value.

Columns and labels:
NCI-H2228 tumor cells = experiment: Cell viability WST (CCK-8) assay, combination of Compound 5 and Compound 34; type: cell-based; conditions: Homo sapiens, 72 hours, single agent, read-out: Compound A IC50
Method: Cell plating: Anti-proliferative effects were detected by a CCK-8 (Cell Counting Kit-8, Shanghai life iLab, China) assay based on water soluble tetrazolium salt (WST). The cells were seeded in 96-well plates, and only 95 μL of complete medium was added to each negative control group. 95 μL of complete medium cell suspension was added to each well to be tested, and the cell density was (5-10)×10^4/hole. Dosing (protection from light): […] After 72 hours of action by using 6 different concentrations of Compound 34 with 3 fixed doses of Compound 5, the combination effect of Compound 5 an Compound 34 was tested. Reading: […] The plates were continuously incubated at 37 ° C. for 2-4 hours in a CO2 incubator. The OD values were measured using a microplate reader (SpectraMax Plus 384, Molecular Devices, LLC., US) under A450 nm. […] (O.D. of test well−O.D. of blank control well)/(O.D. of cell control well−O.D. of blank control well)×100%. IC50 values were calculated using Graphpad Prism 6.0 software for nonlinear regression data analysis method.

[1] = test system: PTK2 high ovarian PDX OV2018; experiment: PTK2 high ovarian PDX model OV2018, Compound 5 and paclitaxel; type: in vivo, mouse
Method: A subcutaneous xenograft tumor model of human tumor immunodeficient mice was established by cell inoculation: tumor cells in logarithmic growth phase were collected, counted, resuspended in 1×PBS, and the cell suspension concentration was adjusted to 2.5-5 ×10^7/mL. The tumor cells were inoculated subcutaneously in the right side of immunodeficient mice with a 1 mL syringe ([…]), 5-10×10^6/0.2 mL/mouse. All animal experiments were strictly in accordance with the specifications for the use and management of experimental animals in GenePharma Co., Ltd. and Suzhou Ascentage Pharma Co., Ltd. The calculation of relevant parameters refers to the Chinese NMPA “Guidelines for Non-Clinical Research Techniques of Cytotoxic Anti-tumor Drugs”.
Animal body weight and tumor size were measured twice weekly during the experiment. The state of the animal and the presence or absence of death were observed every day. The growth of tumor and the effects of treatment on normal behavior of animals were monitored routinely, specifically involving experimental animal activity, feeding and drinking, weight gain or loss, eyes, clothing hair and other abnormalities. The deaths and clinical symptoms observed during the experiment were recorded in the raw data. All operations for administration and measurement of mouse body weight and tumor volume were performed in a clean bench. According to the requirements of the experimental protocol, after the end of the last administration, plasma and tumor tissues were collected, weighed and photographed. The plasma and tumor samples were frozen at −80° C. for ready-to-use.
Tumor volume (TV) is calculated as: TV=a×b^2/2, wherein a and b represent the length and width of the tumor to be measured, respectively.
The relative tumor volume (RTV) is calculated as: RTV=Vt/V1, wherein V1 is the tumor volume at the start of grouping and administration, and Vt is the tumor volume measured on the t day after administration.
Change of body weight (%)=(measured body weight−body weight at the start of grouping)/body weight at the start of grouping×100%.
A dose of drug is considered to be severely toxic if the body weight of mouse is reduced by more than 20% or the number of drug-related deaths exceeds 20%.
According to the description by Clarke R., Issues in experimental design and endpoint analysis in the study of experimental cytotoxic agents in vivo in breast cancer and other models [J]. Breast Cancer Research & Treatment, 1997, 46(2-3): 255-278, synergy analysis was evaluated using the following formula: synergy factor=((A/C)×(B/C))/(AB/C); A=RTV value of drug A alone group; B=RTV value of drug B alone group; C=RTV value of the solvent control group, and AB=RTV value of the A and B combination group.
Use of mRECIST (Gao et al., 2015) measured tumor responses included stable disease (SD), partial tumor regression (PR), and complete regression (CR), determined by comparing tumor volume change at day t to its baseline: tumor volume change (%)=(Vt−V1)/V1. The BestResponse was the minimum value of tumor volume change (%) for t≥10. For each time t, the average of tumor volume changes from t=1 to t was also calculated. BestAvgResponse was defined as the minimum value of this average for t≥10. The criteria for response (mRECIST) were adapted from RECIST criteria (Gao et al., 2015; Therasse et al., 2000) and defined as follows: mCR, BestResponse<−95% and BestAvg Response<−40%; mPR, BestResponse<−50% and BestAvgResponse<−20%; mSD, BestResponse<35% and BestAvgResponse<30%; mPD, not otherwise categorized. SD, PR, and CR were considered responders and used to calculate response rate (%). […] Body weight of animals were monitored simultaneously. The change in body weight was calculated based on the animal weight of the first day of dosing (day 1). Tumor volume and changes in body weight (%) were represented as the mean±standard error of the mean (SEM).

[2] = test system: colon CT26 syngeneic tumor; experiment: s.c. syngeneic tumor model of colon CT26, Compound 5 and anti-PD-1 antibody; type: in vivo; conditions: for RTV on Day 12 after administration (mean ± standard error) / T/C on Day 12 after administration (%): alone or with anti-PD-1 10 mg/kg i.p. twice weekly
[3] = Compound 5 50 mg/kg orally once per day, paclitaxel 10 mg/kg i.v. once a week, 35 days
[4] = Compound 5 30 mg/kg orally once per day
[5] = Compound 5 100 mg/kg orally once per day

Question: What does the source list for `Cc1cc(Nc2ncc(Cl)c(Nc3ccccc3S(=O)(=O)C(C)C)n2)c(OC(C)C)cc1C1=CCN(C2CCOCC2)CC1` [Compound 5, 5-chloro-N^2-(2-isopropoxy-5-methyl-4-(1-(tetrahydro-2H-pyran-4-yl)-1,2,3,6-tetrahydropyridin-4-yl)phenyl)-N^4-(2-(isopropylsulfonyl)phenyl)pyrimidine-2,4-diamine]?
Answer: pIC50 (NCI-H2228 tumor cells): 6.04; RTV on Day 35 after administration (mean ± standard error) [1, 3]: 3.94 ± 0.41; T/C on Day 35 after administration (%) [1, 3]: 162.80%; mRECIST on Day 35 after administration ([1]; Day 35, animals per class): 2/2 PD; mRECIST ([1]; best response, animals per class): 2/2 PD; antitumor activity (conclusion in words) ([1]; mouse, in vivo): no antitumor activity; RTV on Day 12 after administration (mean ± standard error) [2, 4]: 29.9 ± 4.2; T/C on Day 12 after administration (%) [2, 4]: 102.75%; RTV on Day 12 after administration (mean ± standard error) [2, 5]: 22.5 ± 2.2; T/C on Day 12 after administration (%) [2, 5]: 77.32%; antitumor activity (conclusion in words) ([2]; mouse, in vivo): no antitumor activity
